Literature values as cited in patent EP1803441A1 (Teva Pharmaceutical Industries Ltd, priority 2005, dated 2007).

What was measured:
[1] = orally administered tablets
[2] = oral administration

Structure (SMILES): CC(C)OC(=O)C(C)(C)Oc1ccc(C(=O)c2ccc(Cl)cc2)cc1 [fenofibrate, 2-[4-(4-chlorobenzoyl)phenoxy]-2-methyl-propanoic acid, 1-methylethyl ester]
- increase of the extent of absorption when tablets are taken with food [1]: approximately 35%
- part of a single dose excreted in the feces [2]: 25%
